The structures appear in SMILES notation.

This note sets out measurements from patent US8895605B2, “Pyrrolidine-substituted flavones as radio-sensitizers for use in the treatment of cancer” (Piramal Enterprises Limited, priority 2009, dated 2014).

Assay [1] deals with FaDu cell line. The assay is described as follows: In-vitro clonogenic assay (Compound A alone and with radiation). Conditions: for Number of colonies 72 h after Compound A treatment / Number of colonies 96 h after Compound A treatment: 1500 cells/plate; for Number of colonies 72 h after Compound A treatment: control 138 colonies; for Number of colonies 96 h after Compound A treatment: control 185 colonies. It counts as cell-based, human. The protocol: The assay has been carried out according to the method described in Radiotherapy and Oncology, 2004, 71, 213-221; the disclosure of which is incorporated by reference for the teaching of the assay. The Fa-Du cells from exponential phase cultures were harvested by trypsinization, counted and plated at a cell density of 1500 cells/well in six-well plate and four identical groups were made. First group served as control that was untreated. Different wells of the second and third group, 24 h after seeding were irradiated at room temperature at dose of 2, 4, 6, 8 and 10 Gy respectively. The third group was further treated, 24 h after irradiation (i.e. on the third day of the experiment) with IC50 concentration of Compound A. The fourth group was treated on the third day of the experiment with IC50 concentration of Compound A alone. After completion of 72 h and 96 h respectively, the medium was changed for all the wells and the plates incubated for a total period of 12-14 days from the first day of the experiment (i.e. the cell seeding day) to allow sufficient time for the cells to form colonies of at least 50 cells. The medium was aspirated and colonies were fixed with methanol and acetic acid mixture in the proportion of 2:1. The fixation procedure was repeated after rinsing with water. The plates were dried and colonies stained with 0.1% crystal violet for 5 min. The wells were finally rinsed with water and dried. […] FIG. 3 and FIG. 4 show the visual enhancement in the radiation response by 1 μM dose of Compound A, in FaDu cell line (Seeding density: 1500 cells/plate).

Assay [2] relates to Head and Neck carcinoma (FaDu) xenograft. Nature of the assay: In-vivo xenograft study, growth inhibition. Conditions: FaDu xenograft in SCID mice. From the text: The assay can be carried out according to the method described in Clinical Cancer Research, 2003, 9, 6052-6061; the disclosure of which is incorporated by reference for the teaching of the assay. The in-vivo studies can be carried out by using Xenograft models in Severe combined immune deficiency (SCID) mice strain-CBySmn.CB17-Prkdc^scid/J, by the method described below. The statistically significant number of mice per group (n=6) is chosen in order to be able to statistically evaluate the study data. Six to eight weeks old SCID mice were used. Head and neck cancer cells are grown in MEM medium containing 10% fetal calf serum in 5% CO2 incubator at 37° C. Cells are pelleted by centrifugation at 1000 rpm for 10 minutes. […] Body weight for all the groups is recorded for the entire period. Tumor size and other signs of toxicity (external) is recorded every day. […] Tumor growth in compound treated animals is calculated as T/C (Treated/Control)×100% and growth inhibition percent (GI %) was [100−T/C %] […] Treatment is continued for 18 days as mentioned in study design. • Tumor weight in milligram is calculated using the formula for a prolate ellipsoid: Tumor weight (mg)=Length (mm)×[Breadth (mm)^2]×0.5 • Treated to control ratio (T/C %) on a given day is calculated using the formula: [formula] […]

Assay [3] deals with FaDu cell line. Nature of the assay: In-vitro clonogenic assay (Compound A alone and with radiation). The class given is cell-based, human. Conditions: 3500 cells/well, 1 μM Compound A for 48 h and 96 h; colonies could not be counted.
[4] abbreviates: 1 μM Compound A (IC50) alone, no radiation.
The mark [5] stands for this setting: 2 Gy radiation, then 1 μM Compound A 24 h after radiation.
Setting [6] is: 4 Gy radiation, then 1 μM Compound A 24 h after radiation.
The mark [7] stands for this setting: 6 Gy radiation, then 1 μM Compound A 24 h after radiation.
Setting [8] is: 8 Gy radiation, then 1 μM Compound A 24 h after radiation.
[9] abbreviates: 10 Gy radiation, then 1 μM Compound A 24 h after radiation.

In the case of `CN1CC[C@@H](c2c(O)cc(O)c3c(=O)cc(-c4ccccc4Cl)oc23)[C@@H]1CO.Cl` [Compound A, (+)-trans-2-(2-Chlorophenyl)-5,7-dihydroxy-8-(2-hydroxymethyl-1-methyl-pyrrolidin-3-yl)-chromen-4-one hydrochloride], the “Number of colonies 72 h after Compound A treatment” value with FaDu cell line [1] (setting [4]) stood at 38; with FaDu cell line [1] (setting [5]), 45; with FaDu cell line [1] (setting [6]), 18; with FaDu cell line [1] (setting [7]), 7; in the assay with FaDu cell line [1] (setting [8]), 0; with FaDu cell line [1] (setting [9]), 0. Moreover, the “Number of colonies 96 h after Compound A treatment” value in the assay on FaDu cell line [1] (setting [4]) is given as 36; in the assay with FaDu cell line [1] (setting [5]), 40; with FaDu cell line [1] (setting [6]), 17; in the assay on FaDu cell line [1] (setting [7]), 6; in the assay on FaDu cell line [1] (setting [8]), 2; with FaDu cell line [1] (setting [9]) it was 0. Further, the “Radiation response in clonogenic assay” value in the assay on FaDu cell line [1] (1 μM Compound A for both 72 h and 96 h, at both 4 and 6 Gy, 1500 cells/well) is listed as “enhanced the radiation response”. In addition, the “Average % growth inhibition (% GI) with respect to control group” value was found to be 42% in assay [2] (Only Compound A, 35 mpk i.p. everyday for 18 days) and 75% in assay [2] (Radiation (3 Gy twice weekly, total 15 Gy) + Compound A 35 mpk i.p. everyday for 18 days). Also, the “Radiation response in clonogenic assay (visual)” value in the assay with FaDu cell line [3] is listed as “visual enhancement in radiation response”.
